Reference: patent publication EP3409293B1, “COMPLEXES COMPRISING PHOSPHOLIPIDS, WATER-SOLUBLE DEXTRIN FIBERS AND ANTIOXIDANT ACTIVE PRINCIPLES OF NATURAL ORIGIN, THEIR PREPARATION AND USE IN ORAL FORMULATIONS” (UNIVERSITA' DEGLI STUDI DI CAGLIARI, priority 2017, dated 2018)

Tests used:
[1] = Ascorbic acid release from vesicles by dialysis at pH 2 and pH 7; assay type: physicochemical; conditions: 37 °C
Protocol: The velocity (concentration as a function of time) at which the ascorbic acid is released from the vesicles as a function of pH (2 and 7) was measured as well. The dispersions (1 mL) were transferred into dialysis tubes Spectra-Por (300 kDa Float-A-Lyzer G2) immersed in 50 mL of a solution of HCl 0.1 M (pH 2), or in 50 mL of PBS (Phosphate Buffered Saline at pH 7), and maintained at 37 °C under constant stirring for 2 hours at pH 2 and for 6 hours at pH 7. A percentage of the sample was removed at predefined time intervals, and the ascorbic acid concentration was measured with a UV spectrophotometer. […] As aforementioned, release studies were carried out in order to evaluate the ability of the lamellar vesicles to retain and protect the ascorbic acid during the passage through the stomach (pH 2) and/or to retain/protect the same at the neutral pH of the intestine. […] The nutriosomes of the present invention, with or without the additional polymer HPMC, release a quantity of less than 20% after 20 minutes; subsequently, the HPMC-nutriosomes release the lowest percentage, ~40%, after 120 minutes.

Caco2 cells = assay: Protection of Caco2 cells against hydrogen peroxide oxidative damage (MTT), curcumin formulations; assay type: cell-based, human; conditions: Caco2 cells treated with hydrogen peroxide and simultaneously with curcumin formulation, 4 hours; % of untreated cells
Protocol: A study was carried out to evaluate the in vitro ability of the nutriosomes to improve the protective efficacy of curcumin against the oxidative damage induced in Caco2 cells by hydrogen peroxide (Figure 8). The cells were sown in 96-well plates and incubated at 37 °C in an atmosphere with 5% CO2 for the period necessary for achieving confluence. As a negative control, cells maintained in optimal growth conditions and not treated either with hydrogen peroxide or with curcumin were used; as a positive control, cells maintained in optimal growth conditions and treated with hydrogen peroxide, but not treated with curcumin, were used. The other cells were treated with hydrogen peroxide and, simultaneously, with curcumin in aqueous dispersion or carried in liposomes, nutriosomes and HPMC-nutriosomes. The cells were incubated for 4 hours, washed with PBS, and then cell survival was measured by means of a colorimetric test with tetrazolium salt, 3-(4,5-dimethylthiazol-2-yl)-2,5-diphenyltetrazolium bromide (MTT) (see annexed Figure 8). Cell viability was calculated as a percentage of the viability of the untreated cells (negative control).

[2] = Plasmatic concentration of curcumin in rats after gavage; assay type: in vivo, WISTAR male rats; conditions: 2 mL containing 20 mg/mL of curcumin, during the 8 hours of study
Protocol: Curcumin in dispersion or carried in liposomes or nutriosomes was administered to rats in vivo, and both the local accumulation and the plasmatic concentration were measured. The experiments were conducted by using WISTAR male rats (8-12 weeks of age and 230-250 g). The animals were treated in accordance with the European Union regulations concerning the use of laboratory animals. The protocols have been approved by the Istitutional Animal Care and Use Committee of the University of Valencia (Spain). Throughout the length of the study, the animals were kept in a thermally conditioned chamber, with a light/dark cycle of 12 hours and free access to water and food. […] In order to measure the quantity of curcumin accumulated in the intestine, the rats were sacrificed 4 hours after administration, and the gastrointestinal apparatus was removed and divided into the different segments. […]
In order to quantify a plasmatic concentration of curcumin when administering the aqueous dispersion, it was necessary to double the concentration; therefore, 2 mL of dispersion were administered, containing 20 mg/mL of curcumin instead of 10 mg/mL as in liposomes and nutriosomes (Figure 10). Notwithstanding this, the measured plasmatic concentration is always very low, i.e. ∼10 ng/mL during the 8 hours of study. […]

Caco2 = assay: Biocompatibility on Caco2 cells, 48 hours, MTT (curcumin, EU-nutriosomes); assay type: cell-based, human; conditions: Caco2, 48 hours, higher dilutions; % of untreated cells
Protocol: The biocompatibility of curcumin in dispersion or carried in liposomes or EU-nutriosomes was measured by treating intestinal cells (Caco2) with the vesicular formulations at different dilutions for 48 hours. At the end of this incubation period, cell viability was measured by MTT test, and was expressed as a percentage with respect to the untreated cells (negative control). The results are shown in the annexed Figure 13. At the lowest dilution (10 µg/mL of curcumin), viability is ~75%, regardless of the tested sample; at higher dilutions, the viability of the cells treated with curcumin in dispersion remains around 80%, while that of the cells treated with the nutriosomes is greater (~105%) and equal to that of the reference liposomes, which are generally known to be a non-toxic and biocompatible carrier. Probably all vesicular systems are capable of modulating the curcumin uptake within the cells, thereby reducing any toxic effect thereof. By using a non-toxic dilution (1 µg/mL of curcumin), we studied the ability of the formulations to promote the antioxidizing efficacy of the polyphenol. As shown in the previous example, the cells were stressed with hydrogen peroxide and simultaneously treated with curcumin in dispersion or incorporated in the vesicles (see annexed Figure 14). […]

ascorbic acid released ([1]; pH 2 (HCl 0.1 M), after 20 minutes) | ascorbic acid released ([1]; pH 7 (PBS), after 1 hour) | plasmatic concentration of curcumin [2] | SMILES | cell viability (Caco2 cells) | cell viability (Caco2)
approximately 80% | about 80% | – | O=C1O[C@H]([C@@H](O)CO)C(O)=C1O [aqueous solution, ascorbic acid] | – | –
– | – | ~10 ng/mL | COc1cc(C=CC(=O)CC(=O)C=Cc2ccc(O)c(OC)c2)ccc1O [curcumin in aqueous dispersion, 1,7-Bis(4-hydroxy-3-methoxyphenyl)hepta-1,6-diene-3,5-dione] | ~ 69% | around 80%
